Results taken from publication PMC7182431, “CNGA3 acts as a cold sensor in hypothalamic neurons” (eLife, 2020).

Columns and labels:
Format in all cases: cell-based
mCNGA3 (mouse CNGA3) = target: T1, mCNGA3 (mouse CNGA3) (Mus musculus, UniProt A0A6H2E2T0); assay: inside-out patch clamp, HEK293T, Hill fit
T1 construct: HEK293T (PIEZO1-deleted) cells, also Xenopus oocytes; homomer
T1 sequence (A0A6H2E2T0 1-630): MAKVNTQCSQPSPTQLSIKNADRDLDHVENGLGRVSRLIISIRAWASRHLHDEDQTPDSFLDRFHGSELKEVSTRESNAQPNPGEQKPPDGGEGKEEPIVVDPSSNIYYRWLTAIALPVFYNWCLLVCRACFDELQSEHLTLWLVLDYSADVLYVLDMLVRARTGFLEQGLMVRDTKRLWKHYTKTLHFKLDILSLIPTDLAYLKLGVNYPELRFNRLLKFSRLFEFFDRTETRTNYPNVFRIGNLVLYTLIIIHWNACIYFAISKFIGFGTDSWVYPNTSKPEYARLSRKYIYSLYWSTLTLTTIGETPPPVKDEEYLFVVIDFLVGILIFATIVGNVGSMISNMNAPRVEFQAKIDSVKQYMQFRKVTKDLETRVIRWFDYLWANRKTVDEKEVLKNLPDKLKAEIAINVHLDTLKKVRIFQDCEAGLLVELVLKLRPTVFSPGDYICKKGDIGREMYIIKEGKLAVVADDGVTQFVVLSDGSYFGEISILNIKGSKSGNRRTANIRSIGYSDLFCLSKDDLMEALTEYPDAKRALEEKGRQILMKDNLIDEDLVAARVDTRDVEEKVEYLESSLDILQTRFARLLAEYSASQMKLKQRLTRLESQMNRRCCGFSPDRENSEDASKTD

sqCNGA3 (squirrel CNGA3) = target: T2, sqCNGA3 (squirrel CNGA3) (Ictidomys tridecemlineatus, UniProt A0A6H2E3H4); assay: inside-out patch clamp, HEK293T, Hill fit
T2 construct: pMO vector, no tag stated; HEK293T (PIEZO1-deleted) cells, also Xenopus oocytes; homomer
T2 sequence (A0A6H2E3H4 1-672): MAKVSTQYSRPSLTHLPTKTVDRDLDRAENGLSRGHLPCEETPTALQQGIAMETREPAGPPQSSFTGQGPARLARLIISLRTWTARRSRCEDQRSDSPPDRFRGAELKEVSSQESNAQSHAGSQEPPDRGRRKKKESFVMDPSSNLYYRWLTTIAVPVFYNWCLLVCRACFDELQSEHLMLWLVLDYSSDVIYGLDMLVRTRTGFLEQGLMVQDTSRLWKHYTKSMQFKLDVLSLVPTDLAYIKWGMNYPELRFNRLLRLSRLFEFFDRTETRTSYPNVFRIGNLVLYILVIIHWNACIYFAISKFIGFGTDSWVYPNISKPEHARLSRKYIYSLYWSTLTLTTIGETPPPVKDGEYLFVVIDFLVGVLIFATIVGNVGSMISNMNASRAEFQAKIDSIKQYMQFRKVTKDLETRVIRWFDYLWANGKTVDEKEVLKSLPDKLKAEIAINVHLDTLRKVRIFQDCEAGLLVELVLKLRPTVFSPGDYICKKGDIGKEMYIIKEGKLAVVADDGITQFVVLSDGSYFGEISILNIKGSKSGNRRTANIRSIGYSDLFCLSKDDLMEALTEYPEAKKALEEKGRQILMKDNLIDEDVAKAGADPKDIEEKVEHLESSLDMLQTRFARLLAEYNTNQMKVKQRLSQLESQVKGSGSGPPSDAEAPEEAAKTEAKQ

[1] = target: T3, CNGA3-CNGB1 heteromers (mCNGA3 with mCNGB1) (Mus musculus, UniProt A0A6H2E2T0+E1AZ71); assay: voltage clamp, Xenopus oocytes, inhibition of cold-activated current; details: 100 µM extracellular drug, 1 µM intracellular cGMP, -80 mV, cooling; inhibitor; mixed with CNGA3 homomers
T3 construct: full-length subunits co-expressed in Xenopus oocytes from pMO vector; mixture with CNGA3 homomers likely
T3 sequence (E1AZ71 whole entry, one chain of several): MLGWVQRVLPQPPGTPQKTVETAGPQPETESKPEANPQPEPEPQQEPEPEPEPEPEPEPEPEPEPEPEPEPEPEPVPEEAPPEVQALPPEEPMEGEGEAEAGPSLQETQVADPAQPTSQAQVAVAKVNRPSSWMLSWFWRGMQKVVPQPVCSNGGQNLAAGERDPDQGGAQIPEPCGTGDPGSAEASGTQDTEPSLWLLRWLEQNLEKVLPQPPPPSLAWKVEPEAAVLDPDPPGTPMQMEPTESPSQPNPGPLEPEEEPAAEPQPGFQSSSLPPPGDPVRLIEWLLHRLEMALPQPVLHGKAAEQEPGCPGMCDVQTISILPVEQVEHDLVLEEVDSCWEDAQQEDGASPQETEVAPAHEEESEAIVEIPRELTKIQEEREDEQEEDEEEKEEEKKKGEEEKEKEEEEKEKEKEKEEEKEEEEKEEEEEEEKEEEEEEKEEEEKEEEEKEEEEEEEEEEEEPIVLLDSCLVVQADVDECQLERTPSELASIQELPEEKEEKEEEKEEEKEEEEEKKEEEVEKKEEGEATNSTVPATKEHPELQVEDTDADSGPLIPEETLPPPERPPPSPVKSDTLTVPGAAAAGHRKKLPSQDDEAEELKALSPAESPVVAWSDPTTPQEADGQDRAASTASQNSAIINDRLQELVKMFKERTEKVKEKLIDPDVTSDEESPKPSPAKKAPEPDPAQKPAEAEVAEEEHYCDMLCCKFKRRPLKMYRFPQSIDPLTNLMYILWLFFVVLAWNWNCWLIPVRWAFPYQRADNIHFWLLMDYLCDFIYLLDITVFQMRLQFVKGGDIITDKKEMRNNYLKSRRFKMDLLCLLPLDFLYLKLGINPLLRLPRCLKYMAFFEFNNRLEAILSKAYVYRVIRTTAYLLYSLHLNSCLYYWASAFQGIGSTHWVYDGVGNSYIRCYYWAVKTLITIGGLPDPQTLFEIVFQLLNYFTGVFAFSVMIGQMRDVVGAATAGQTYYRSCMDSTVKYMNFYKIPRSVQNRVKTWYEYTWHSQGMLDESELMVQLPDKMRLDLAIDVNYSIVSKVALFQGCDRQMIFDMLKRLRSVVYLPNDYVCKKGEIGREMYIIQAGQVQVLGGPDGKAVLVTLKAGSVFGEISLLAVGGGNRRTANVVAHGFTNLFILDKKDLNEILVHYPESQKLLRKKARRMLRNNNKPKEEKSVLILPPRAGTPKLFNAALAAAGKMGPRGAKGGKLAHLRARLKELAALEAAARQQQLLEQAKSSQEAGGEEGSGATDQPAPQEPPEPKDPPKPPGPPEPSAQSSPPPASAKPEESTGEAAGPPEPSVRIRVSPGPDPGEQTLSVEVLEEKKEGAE

EC50 (mCNGA3 (mouse CNGA3))	EC50 (sqCNGA3 (squirrel CNGA3))	SMILES	inhibition [1]
21.8 ± 5.48 µM	26.4 ± 1.12 µM	Nc1nc2c(ncn2[C@@H]2O[C@@H]3COP(=O)(O)O[C@H]3[C@H]2O)c(=O)[nH]1 [cGMP]	–
–	–	COc1ccc([C@H]2Sc3ccccc3N(CCN(C)C)C(=O)[C@H]2OC(C)=O)cc1 [l-cis-diltiazem]	CNGA3-CNGB1 heteromers can form a cold-activated l-cis-diltiazem-sensitive ion channel
